Laboratory results: paper PMC9663597, “Anti-infective therapy using species-specific activators of Staphylococcus aureus ClpP” (Nature Communications, 2022)
Converted amounts (≈) assume the structure as drawn. Like-named read-outs stand apart in the source and are kept apart here. Values belong to the molecule of their own block, whether it stands above or below them.

Assays:
[1] = biological target: T1, SaClpP (Staphylococcus aureus ClpP) (Staphylococcus aureus, UniProt Q2G036); assay: ITC; also BLI (Kd […]), DSF, CETSA, X-ray crystal structure, alpha-casein hydrolysis EC50 […]; assay type: binding
SaClpPI91W = biological target: T2, SaClpPI91W (Staphylococcus aureus, UniProt Q2G036, I91W); assay: ITC; also DSF, CETSA, alpha-casein hydrolysis; assay type: binding
T2 construct: gene clpP

[2] = test system: T3, Staphylococcus aureus NRS100; assay: microbe, parasite or virus in culture; design: species or system Staphylococcus aureus strains; Minimum inhibitory concentration, growth inhibition of S. aureus strains in culture; conditions: NRS100, read-out: MIC
T3 construct: NRS100
Text: (§1) Given our species-specific activators suppress the growth of S. aureus 8325-4, we then tested the antistaphylococcal spectrum of (R)- and (S)-ZG197 against a panel of S. aureus strains, including the Newman strain and multidrug-resistant MRSA strains. The USA300, NRS-1, NRS-70, NRS-100, NRS-108, and NRS-271 MRSA strains were collected from the Network on Antimicrobial Resistance in S. aureus (Supplementary Table 2). […] We also tested the antibacterial effects of our activators on five hospital-acquired, multidrug-resistant MRSA isolates in China, including XJ009, XJ036, XJ049, XJ051, and XJ052 (Supplementary Table 2). […] We next performed a minimum inhibitory concentration (MIC) assay in [compound left out] culture to determine the antibacterial effects of our activators on the S. aureus 8325-4 strain. […] To dissect whether our activators’ antistaphylococcal activity depends on ClpP in S. aureus, we determined the inhibitory effects of our activators on the ΔclpP mutant and the complemented clpP or clpPI91W mutant strains, respectively (Fig. 5a). The selective (R)- and (S)-ZG197 activators or the global activators ICG-001 and ONC212 minimally suppress the growth of ΔclpP mutant strain, and all the MICs are observed to be over 256 μg/mL. The antibacterial phenotype can be rescued in the complemented clpP strain in the presence of ClpP activators.

[3] = test system: T4, Staphylococcus aureus NRS108; assay: microbe, parasite or virus in culture; design: species or system Staphylococcus aureus strains; Minimum inhibitory concentration, growth inhibition of S. aureus strains in culture; conditions: NRS108, read-out: MIC
T4 construct: NRS108
Text: as §1

[4] = test system: T5, Staphylococcus aureus NRS1; assay: microbe, parasite or virus in culture; design: species or system Staphylococcus aureus strains; Minimum inhibitory concentration, growth inhibition of S. aureus strains in culture; conditions: NRS1, read-out: MIC
T5 construct: NRS1
Text: as §1

[5] = test system: T6, Staphylococcus aureus NRS271; assay: microbe, parasite or virus in culture; design: species or system Staphylococcus aureus strains; Minimum inhibitory concentration, growth inhibition of S. aureus strains in culture; conditions: NRS271, read-out: MIC
T6 construct: NRS271
Text: as §1

[6] = test system: T7, Staphylococcus aureus NRS70; assay: microbe, parasite or virus in culture; design: species or system Staphylococcus aureus strains; Minimum inhibitory concentration, growth inhibition of S. aureus strains in culture; conditions: NRS70, read-out: MIC
T7 construct: NRS70
Text: as §1

[7] = test system: T8, Staphylococcus aureus Newman; assay: microbe, parasite or virus in culture; design: species or system Staphylococcus aureus strains; Minimum inhibitory concentration, growth inhibition of S. aureus strains in culture; conditions: NEWMAN, read-out: MIC
T8 construct: Newman
Text: as §1

[8] = test system: T9, Staphylococcus aureus USA300 LAC; assay: microbe, parasite or virus in culture; design: species or system Staphylococcus aureus strains; Minimum inhibitory concentration, growth inhibition of S. aureus strains in culture; conditions: USA300, read-out: MIC
T9 construct: USA300 LAC
Text: as §1

[9] = test system: T10, Staphylococcus aureus XJ009; assay: microbe, parasite or virus in culture; design: species or system Staphylococcus aureus strains; Minimum inhibitory concentration, growth inhibition of S. aureus strains in culture; conditions: XJ009, read-out: MIC
T10 construct: XJ009
Text: as §1

[10] = test system: T11, Staphylococcus aureus XJ036; assay: microbe, parasite or virus in culture; design: species or system Staphylococcus aureus strains; Minimum inhibitory concentration, growth inhibition of S. aureus strains in culture; conditions: XJ036, read-out: MIC
T11 construct: XJ036
Text: as §1

[11] = test system: T12, Staphylococcus aureus XJ049; assay: microbe, parasite or virus in culture; design: species or system Staphylococcus aureus strains; Minimum inhibitory concentration, growth inhibition of S. aureus strains in culture; conditions: XJ049, read-out: MIC
T12 construct: XJ049
Text: as §1

[12] = test system: T13, Staphylococcus aureus XJ051; assay: microbe, parasite or virus in culture; design: species or system Staphylococcus aureus strains; Minimum inhibitory concentration, growth inhibition of S. aureus strains in culture; conditions: XJ051, read-out: MIC
T13 construct: XJ051
Text: as §1

[13] = test system: T14, Staphylococcus aureus XJ052; assay: microbe, parasite or virus in culture; design: species or system Staphylococcus aureus strains; Minimum inhibitory concentration, growth inhibition of S. aureus strains in culture; conditions: XJ052, read-out: MIC
T14 construct: XJ052
Text: as §1

[14] = biological target: T1, SaClpP (Staphylococcus aureus ClpP); assay: ITC; also BLI (Kd […]), DSF, CETSA, X-ray crystal structure; assay type: binding
[15] = test system: T11, Staphylococcus aureus XJ036; assay: microbe, parasite or virus in culture; design: species or system Staphylococcus aureus strains; Minimum inhibitory concentration, growth inhibition of S. aureus strains in culture; conditions: XJ036
Text: as §1, with “liquid” for “[compound left out]”

[16] = test system: T12, Staphylococcus aureus XJ049; assay: microbe, parasite or virus in culture; design: species or system Staphylococcus aureus strains; Minimum inhibitory concentration, growth inhibition of S. aureus strains in culture; conditions: XJ049
Text: as §1, with “liquid” for “[compound left out]”

[17] = test system: T13, Staphylococcus aureus XJ051; assay: microbe, parasite or virus in culture; design: species or system Staphylococcus aureus strains; Minimum inhibitory concentration, growth inhibition of S. aureus strains in culture; conditions: XJ051
Text: as §1, with “liquid” for “[compound left out]”

[18] = test system: T14, Staphylococcus aureus XJ052; assay: microbe, parasite or virus in culture; design: species or system Staphylococcus aureus strains; Minimum inhibitory concentration, growth inhibition of S. aureus strains in culture; conditions: XJ052
Text: as §1, with “liquid” for “[compound left out]”

[19] = biological target: T15, Staphylococcus aureus ClpP (Staphylococcus aureus), Q2G036; assay: crystal structure; SaClpP (10 mg/mL) with 5-fold ZG180, sitting drop vapor diffusion at 16 °C, 30% 2-methyl-2,4-pentanediol, 0.1 M sodium acetate/HCl pH 8.0, 20 mM calcium chloride; 1.90 Å; conditions: remark: other sources report otherwise
T15 chain: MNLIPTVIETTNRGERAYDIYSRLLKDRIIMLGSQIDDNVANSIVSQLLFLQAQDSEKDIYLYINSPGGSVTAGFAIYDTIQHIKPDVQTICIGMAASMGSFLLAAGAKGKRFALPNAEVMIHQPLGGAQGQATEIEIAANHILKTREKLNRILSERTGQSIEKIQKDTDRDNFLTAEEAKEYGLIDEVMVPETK

Molecule: CC[C@H](C)[C@H]1C(=O)N([C@H](C)c2cccc3ccccc23)C[C@@H]2N(C(=O)NCCCC(F)(F)F)CCC(=O)N12 [(R)-ZG197]
Kd [1]: 2500 ± 200 nM | Kd (SaClpPI91W): 930 ± 200 nM | MIC [2]: 0.5 µg/mL (≈ 0.939 µM) | MIC [3]: 0.5 µg/mL (≈ 0.939 µM) | MIC [4]: 2 µg/mL (≈ 3.76 µM) | MIC [5]: 2 µg/mL (≈ 3.76 µM) | MIC [6]: 0.5 µg/mL (≈ 0.939 µM) | MIC [7]: 0.5 µg/mL (≈ 0.939 µM) | MIC [8]: 0.5 µg/mL (≈ 0.939 µM) | MIC [9]: 1 µg/mL (≈ 1.88 µM) | MIC [10]: 1 µg/mL (≈ 1.88 µM) | MIC [11]: 0.5 µg/mL (≈ 0.939 µM) | MIC [12]: 0.5 µg/mL (≈ 0.939 µM) | MIC [13]: 1 µg/mL (≈ 1.88 µM)

Molecule: CC[C@@H](C)[C@H]1C(=O)N([C@@H](C)c2cccc3ccccc23)C[C@@H]2N(C(=O)NCCCC(F)(F)F)CCC(=O)N12 [(S)-ZG197]
Kd [14]: 5000 ± 300 nM | MIC [2]: 2 µg/mL (≈ 3.76 µM) | MIC [3]: 4 µg/mL (≈ 7.51 µM) | MIC [4]: 8 µg/mL (≈ 15 µM) | MIC [5]: 4 µg/mL (≈ 7.51 µM) | MIC [6]: 4 µg/mL (≈ 7.51 µM) | MIC [7]: 2 µg/mL (≈ 3.76 µM) | MIC [8]: 8 µg/mL (≈ 15 µM) | MIC [9]: 8 µg/mL (≈ 15 µM) | MIC [10]: 4 µg/mL (≈ 7.51 µM) | MIC [11]: 8 µg/mL (≈ 15 µM) | MIC [12]: 4 µg/mL (≈ 7.51 µM) | MIC [13]: 4 µg/mL (≈ 7.51 µM)

MIC [10]: 0.13 µg/mL (≈ 0.306 µM) | MIC [12]: 0.06 µg/mL (≈ 0.141 µM)
Molecule: CCC[C@@H]1C[C@@H](C(=O)N[C@@H]([C@H]2O[C@H](SC)[C@H](O)[C@@H](O)[C@H]2O)[C@H](C)Cl)N(C)C1 [Clindamycin]

Molecule: CC[C@H]1OC(=O)[C@H](C)[C@@H](O[C@H]2C[C@@](C)(OC)[C@@H](O)[C@H](C)O2)[C@H](C)[C@@H](O[C@@H]2O[C@H](C)C[C@H](N(C)C)[C@H]2O)[C@](C)(O)C[C@@H](C)C(=O)[C@H](C)[C@@H](O)[C@]1(C)O [Erythromycin]
MIC [2]: 0.06 µg/mL (≈ 0.0818 µM) | MIC [5]: 0.5 µg/mL (≈ 0.681 µM) | MIC [8]: 16 µg/mL (≈ 21.8 µM) | MIC [10]: 0.25 µg/mL (≈ 0.341 µM) | MIC [12]: 32 µg/mL (≈ 43.6 µM)

Molecule: CNC(C)[C@@H]1CC[C@@H](N)[C@@H](O[C@H]2[C@H](O)[C@@H](O[C@H]3OC[C@](C)(O)[C@H](NC)[C@H]3O)[C@H](N)C[C@@H]2N)O1 (stereo partly drawn) [Gentamicin]
MIC [15]: 0.25 µg/mL (≈ 0.523 µM) | MIC [16]: 32 µg/mL (≈ 67 µM) | MIC [17]: 64 µg/mL (≈ 134 µM) | MIC [18]: 64 µg/mL (≈ 134 µM)

Molecule: CCn1cc(C(=O)O)c(=O)c2cc(F)c(N3CCNCC3)cc21 [Norfloxacin]
MIC [9]: 0.5 µg/mL (≈ 1.57 µM) | MIC [10]: 64 µg/mL (≈ 200 µM) | MIC [12]: 64 µg/mL (≈ 200 µM)

Molecule: O=C1C2=C(CCN(Cc3ccccc3)C2)N2CCN=C2N1Cc1ccc(C(F)(F)F)cc1 [ONC212]
MIC [2]: 0.5 µg/mL (≈ 1.14 µM) | MIC [3]: 0.5 µg/mL (≈ 1.14 µM) | MIC [4]: 1 µg/mL (≈ 2.27 µM) | MIC [5]: 0.5 µg/mL (≈ 1.14 µM) | MIC [6]: 0.25 µg/mL (≈ 0.568 µM) | MIC [7]: 0.25 µg/mL (≈ 0.568 µM) | MIC [8]: 0.5 µg/mL (≈ 1.14 µM) | MIC [9]: 0.5 µg/mL (≈ 1.14 µM) | MIC [10]: 0.25 µg/mL (≈ 0.568 µM) | MIC [11]: 0.25 µg/mL (≈ 0.568 µM) | MIC [12]: 1 µg/mL (≈ 2.27 µM) | MIC [13]: 0.25 µg/mL (≈ 0.568 µM)

Molecule: Cc1onc(-c2ccccc2)c1C(=O)N[C@@H]1C(=O)N2[C@@H]1SC(C)(C)[C@@H]2C(=O)O [Oxacillin]
MIC [2]: 0.1 µg/mL (≈ 0.249 µM) | MIC [3]: 0.5 µg/mL (≈ 1.25 µM) | MIC [6]: 2 µg/mL (≈ 4.98 µM) | MIC [7]: 0.1 µg/mL (≈ 0.249 µM) | MIC [9]: 4 µg/mL (≈ 9.96 µM) | MIC [10]: 1 µg/mL (≈ 2.49 µM)

Molecule: CN(C)[C@@H]1C(O)=C(C(N)=O)C(=O)[C@@]2(O)C(O)=C3C(=O)c4c(O)cccc4[C@@](C)(O)[C@H]3C[C@@H]12 [Tetracycline]
MIC [5]: 2.5 µg/mL (≈ 5.63 µM) | MIC [6]: 0.06 µg/mL (≈ 0.135 µM) | MIC [8]: 16 µg/mL (≈ 36 µM)

stoichiometry N [19]: 14
B1: Staphylococcus aureus ClpP, Q2G036 1-195 (enzyme)
chain: MNLIPTVIETTNRGERAYDIYSRLLKDRIIMLGSQIDDNVANSIVSQLLFLQAQDSEKDIYLYINSPGGSVTAGFAIYDTIQHIKPDVQTICIGMAASMGSFLLAAGAKGKRFALPNAEVMIHQPLGGAQGQATEIEIAANHILKTREKLNRILSERTGQSIEKIQKDTDRDNFLTAEEAKEYGLIDEVMVPETK
